# Measured values from patent publication US11173162B2, “Bicyclic heterocycles as FGFR4 inhibitors” (Incyte Corporation, priority 2015, dated 2021).
# Test system: FGFR3 enzyme
# Assay: FGFR Enzymatic Assay (FRET peptide phosphorylation), FGFR3
# Format: biochemical
# Conditions: IC50 ratio showing FGFR3 selectivity; Table 2A, pre-incubated for 4 hours
# Method: The inhibitor potency of the exemplified compounds was measured in an enzyme assay that measures peptide phosphorylation using FRET measurements to detect product formation. Inhibitors were serially diluted in DMSO and a volume of 0.5 μL was transferred to the wells of a 384-well plate.
# GraphPad prism3 was used to analyze the data.
Structure (SMILES),FGFR1/FGFR3,FGFR4/FGFR3
"COc1cc(OC)c(F)c(N2Cc3cnc(-c4cn(C)nc4C)cc3N(c3ccc(-c4nnc(C)o4)cc3)C2=O)c1F [Example 115, 3-(2,6-difluoro-3,5-dimethoxyphenyl)-7-(1,3-dimethyl-1H-pyrazol-4-yl)-1-(4-(5-methyl-1,3,4-oxadiazol-2-yl)phenyl)-3,4-dihydropyrido[4,3-d]pyrimidin-2(1H)-one]",>3,>5
"CCN1C(=O)N(c2c(F)c(OC)cc(OC)c2F)Cc2cnc(-c3cn(CCN4CCOCC4)nc3C)cc21 [Example 49, 3-(2,6-difluoro-3,5-dimethoxyphenyl)-1-ethyl-7-(3-methyl-1-(2-morpholinoethyl)-1H-pyrazol-4-yl)-3,4-dihydropyrido[4,3-d]pyrimidin-2(1H)-one]",>5,>1
"CCn1cc(-c2cc3c(cn2)CN(c2c(F)c(OC)cc(OC)c2F)C(=O)C32CC2)c(C)n1 [Example 158, 2′-(2,6-difluoro-3,5-dimethoxyphenyl)-6′-(1-ethyl-3-methyl-1H-pyrazol-4-yl)-1′H-spiro[cyclopropane-1,4′-[2,7]naphthyridin]-3′(2′H)-one]",>5,>3
"COc1cc(OC)c(F)c(N2Cc3cnc(-c4cnn(CCN5CCOCC5)c4)cc3C3(CC3)C2=O)c1F [Example 157, 2′-(2,6-difluoro-3,5-dimethoxyphenyl)-6′-(1-(2-morpholinoethyl)-1H-pyrazol-4-yl)-1′H-spiro[cyclopropane-1,4′-[2,7]naphthyridin]-3′(2′H)-one]",>5,>3
"COc1cc(OC)c(F)c(N2Cc3cnc(-c4cn(C)nc4C)cc3N(Cc3cnn(CC#N)c3)C2=O)c1F [Example 125, 2-(4-((3-(2,6-difluoro-3,5-dimethoxyphenyl)-7-(1,3-dimethyl-1H-pyrazol-4-yl)-2-oxo-3,4-dihydropyrido[4,3-d]pyrimidin-1(2H)-yl)methyl)-1H-pyrazol-1-yl)acetonitrile]",>5,>5
"COc1cc(OC)c(F)c(N2Cc3cnc(-c4cn(CCC5CCNCC5)nc4C)cc3C3(CC3)C2=O)c1F [Example 165, 2′-(2,6-difluoro-3,5-dimethoxyphenyl)-6′-(3-methyl-1-(2-(piperidin-4-yl)ethyl)-1H-pyrazol-4-yl)-1′H-spiro[cyclopropane-1,4′-[2,7]naphthyridin]-3′(2′H)-one]",>3,>3
"COc1cc(OC)c(F)c(N2Cc3cnc(-c4cnn(CC5CCCS(=O)(=O)N5)c4)cc3C3(CC3)C2=O)c1F (centres unmarked) [Example 162, 2′-(2,6-difluoro-3,5-dimethoxyphenyl)-6′-{1-[(1,1-dioxido-1,2-thiazinan-3-yl)methyl]-1H-pyrazol-4-yl}-1′H-spiro[cyclopropane-1,4′-[2,7]naphthyridin]-3′(2′H)-one]",>5,>1
"COc1cc(OC)c(F)c(N2Cc3cnc(-c4cn(C5CCS(=O)(=O)C5)nc4C)cc3C3(CC3)C2=O)c1F (centres unmarked) [Example 54, 2′-(2,6-difluoro-3,5-dimethoxyphenyl)-6′-[1-(1,1-dioxidotetrahydro-3-thienyl)-3-methyl-1H-pyrazol-4-yl]-1′,2′-dihydro-3′H-spiro[cyclopropane-1,4′-[2,7]naphthyridin]-3′-one]",>5,>1
"CNC(=O)c1ccc(CN2C(=O)N(c3c(F)c(OC)cc(OC)c3F)Cc3cnc(-c4cn(C)nc4C)cc32)cc1 [Example 62, 4-((3-(2,6-difluoro-3,5-dimethoxyphenyl)-7-(1,3-dimethyl-1H-pyrazol-4-yl)-2-oxo-3,4-dihydropyrido[4,3-d]pyrimidin-1(2H)-yl)methyl)-N-methylbenzamide]",>10,>5
"CCN1C(=O)N(c2c(F)c(OC)cc(OC)c2F)Cc2cnc(-c3cnn(C)c3)cc21 [Example 169, 3-(2,6-difluoro-3,5-dimethoxyphenyl)-1-ethyl-7-(1-methyl-1H-pyrazol-4-yl)-3,4-dihydropyrido[4,3-d]pyrimidin-2(1H)-one]",>3,>5
